Values of other authors as cited in US11666537B2, “Solid oral dosage form of irinotecan for the treatment of cancer” (Oncoral Pharma ApS, priority 2014, dated 2023).

Test system: tumor cells
Settings: human and rodent tumor cell lines

**Q.** Which “times more cytotoxic than irinotecan” value does the source give for `CCc1c2c(nc3ccc(O)cc13)-c1cc3c(c(=O)n1C2)COC(=O)[C@]3(O)CC` [SN-38] here?
**A.** 100-1000 times
